This note sets out measurements from US11000586B2, “Adjuvant composition, vaccine composition containing the same, and method for producing both of them” (TERUMO KABUSHIKI KAISHA, priority 2013, dated 2021).

The subject of assay [1] is IFNγ-secreting cells in the spleen. Nature of the assay: ELIspot method (IFNγ spots) after immunization of mice. In kind it is in vivo, C57BL/6N mice. Particulars: antigen OVA peptide; DLPC, deoxycholic acid (160 nmol), MPL content 0.227; 2×10^6 cells/well; FIG. 2. The protocol: Administration (100 μL/head) was performed by subcutaneous injection at one position on the back under anesthesia. The dose of the amphipathic substance was 100 nmol/head; the dose of the pH-sensitive compound was 10 to 640 nmol/head; MPL content was 0.0227 to 22.7 nmol/head; and the amount of the antigen was 3.2 to 400 μg/head. For evaluation of cell-mediated immunity, administration was performed once and the assay was performed seven days after administration. For evaluation of humoral immunity, administration was performed twice. The second administration was performed 14 days after the first administration, and assay was performed seven days after the second administration.
The mice were sacrificed on the seventh day after the last administration and had its spleen harvested. […] The number of cells was counted. […]
The ELIspot method was practiced by using the Mouse IFNγ ELISPOT Set. One day before cell inoculation, the 96-well ELIspot plate was allowed to adsorb the detection antibody attached to the kit, so that the plate was made ready for use. […]
Samples used for comparison include a solution of the peptide alone, a dispersion of the pH-sensitive carrier (DLPC-deoxycholic acid) and the peptide, and a solution of incomplete Freund's adjuvant (IFA) and peptide. […] The number of IFNγ-secreting cells in the spleen was counted, and the CTL induction was evaluated.

Another assay concerns CD80. The assay can be described thus: Evaluation of stimulus to activate innate immune system: expression of CD80 in cultured mice spleen cells (flow cytometry). The conditions noted are these: solution (5 μL) of sample added alone: peptide, OVA 800 μg/mL, DLPC 1000 nmol/mL, deoxycholic acid 1600 nmol/mL; FIG. 8(B).
Assay [2] relates to CTL (IFNγ-secreting cells/total CD8 positive cells). Nature of the assay: Evaluation of CTL induction rate, ICS method, after immunization of mice. It counts as in vivo, C57BL/6N mice. Particulars: antigen peptide (80 μg); MPL content 0.227 or equivalent; DLPC, deoxycholic acid (160 nmol); subcutaneous once; FIGS. 3 and 4. The procedure:
Administration (100 μL/head) was performed by subcutaneous injection at one position on the back under anesthesia. […] For evaluation of cell-mediated immunity, administration was performed once and the assay was performed seven days after administration. For evaluation of humoral immunity, administration was performed twice. The second administration was performed 14 days after the first administration, and assay was performed seven days after the second administration.
The mice were sacrificed on the seventh day after the last administration and had its spleen harvested. The spleen was given RPMI medium (3.0 mL) containing 10% serum and then treated by the BD Falcon cell strainer. Thus there was obtained a suspension of cells. […] The cells were dispersed into RPMI medium containing 10% serum. The number of cells was counted. Thus there was obtained a dispersion of spleen cells.
For restimulation of the antigen, 10% serum-containing RPMI medium (100 μL) containing OVA peptide (40 μg/mL) was added, followed by incubation for three hours. Then, BD GolgiPlug was added such that its concentration was 0.2 μL/100 μL. Cell culture was performed overnight. In the case where the restimulation was not given, a 10% serum-containing RPMI medium not containing OVA peptide was used.
After washing, the cells were stained with Anti-CD8aPE (at 4° C. for 30 minutes), followed by washing again. Then the cells were permeabilized with Cytofix/Cytoperm. After washing, the cells were stained with Anti-IFNγFITC (at 4° C. for 30 minutes). […] CTL induction rate was calculated in terms of the ratio between the IFNγ secreting cells and the total CD8 positive cells.
It is known that MPL activates innate immune system and functions as an adjuvant even when used alone. It is also known that MPL induces cell-mediated immunity. Thus, a comparison was made as to the induction of cell-mediated immunity between MPL used alone and MPL used in combination with a pH-sensitive carrier in the form of the adjuvant composition. Each of the MPL and the adjuvant composition is administered together with an antigen. […] The above-mentioned solution or dispersion was subcutaneously administered once to the back of C57BL/6N mice, and the CTL induction rate was obtained according to the ICS method. The CTL induction rate is expressed in terms of the ratio of the IFNγ-secreting cells to the total CD8 positive cells in a specific area which is hardly affected by dead cells (IFNγ-secreting cells/total CD8 positive cells).

Procedure for CD80: The evaluation of stimulus to activate innate immune system was performed as follows.
A spleen was harvested from C57BL/6N mice. The harvested spleen was injected with 500 μL of collagenase solution, 2 mg/mL (prepared with RPMI medium) followed by incubation at 37° C. for 30 minutes. The spleen was made into cell suspension by treatment with BD Falcon cell strainer. The cells underwent hemolysis with RBC lysis buffer, followed by washing with RPMI medium. The cells were dispersed into RPMI medium, and the number of cells was counted. The cells were used for the subsequent procedure.
The cells were inoculated into a 96-well dish such that 1.0×10^6 cells/100 μL. The cell dispersion was given 100 μL of RPMI medium containing a dispersion of different kind, followed by incubation overnight. These procedures were performed by using serum-free RPMI medium.
The cells were recovered and washed with BD stain buffer. Then, the cells underwent incubation together with Anti-CD11cFITC, 0.25 μg/100 μL (4° C. for 30 minutes), so that the cells were stained. After washing, the cells underwent again incubation with Anti-CD80PE, Anti-CD86PE, or Anti-CD40PE, 0.25 μg/100 μL (4° C. for 30 minutes), so that the cells were stained. After washing at least more than three times, the cells were evaluated by using the flow cytometer (Cytomics FC500, Software: CXP software ver. 2).

As for SIINFEKL [peptide alone], the “number of IFNγ spots compared with untreated sample” value in assay [1] is “equivalent number of spots as the untreated sample”. Also, the “fluorescence intensity of CD80PE compared with PBS” value with CD80 is listed as “remained unchanged from that in the case where PBS was added”. Besides, in assay [2], the CTL induction rate was 0.14%.
